Earlier results as cited in patent US20050143344A1, “Methods and compositions using immunomodulatory compounds for the treatment and management of central nervous system disorders or diseases” (priority 2003, published 2005).

How the values were obtained:
[1] = for conversion in acetone and other anhydrous systems: acetone / anhydrous solvent systems
nigrostriatal neurons = details: lentiviral vector delivery

In the case of `Nc1cccc2c1CN(C1CCC(=O)NC1=O)C2=O` (stereo not drawn) [Form B, 3-(4-amino-1-oxo-1,3 dihydro-isoindol-2-yl)-piperidene-2,6-dione], the conversion upon heating ([1]; 175° C. for about five minutes) is given as “can convert to Form F”, the “conversion in acetone and other anhydrous systems” value [1] is given as “converts to other forms” and the “stability / conversion in aqueous solvent systems” value ([1]; aqueous solvent systems) is given as “converts to Form E”.

For `Nc1cccc2c1CN(C1CCC(=O)NC1=O)C2=O` (stereo not drawn) [Form C, 3-(4-amino-1-oxo-1,3 dihydro-isoindol-2-yl)-piperidene-2,6-dione], the “conversion at higher relative humidities” value [1] is given as “can convert to Form B”.

For `Nc1cccc2c1CN(C1CCC(=O)NC1=O)C2=O` (stereo not drawn) [Form D, 3-(4-amino-1-oxo-1,3 dihydro-isoindol-2-yl)-piperidene-2,6-dione], the “conversion at higher relative humidities” value [1] is given as “will typically convert to Form B”.

For `Nc1cccc2c1CN(C1CCC(=O)NC1=O)C2=O` (stereo not drawn) [Form E, 3-(4-amino-1-oxo-1,3 dihydro-isoindol-2-yl)-piperidene-2,6-dione], the “conversion in THF solvent system” value ([1]; THF solvent system) is given as “to Form G”, the “conversion upon heating (desolvation)” value ([1]; about 125° C. for about five minutes) is given as “can convert to Form B” and the “conversion in acetone and other anhydrous systems” value [1] is given as “can convert to Form C”.

B1: GDNF: glial cell line derived neurotrophic factor, delivered by lentiviral vectors to striatum and SN of rhesus monkeys (protein, UniProt P39905 78-211, looked up)
Glial cell line-derived …: SPDKQMAVLPRRERNRQAAAANPENSRGKGRRGQRGKNRGCVLTAIHLNVTDLGLGYETKEELIFRYCSGSCDAAETTYDKILKNLSRNRRLVSDKVGQACCRPIAFDDDLSFLDDNLVYHILRKHSAKRCGCI
modifications: lentiviral vector delivery
notes: glial cell line derived neurotrophic factor, delivered by lentiviral vectors to striatum and SN of rhesus monkeys
For B1, the motor deficits (nigrostriatal neurons; MPTP treated monkeys) is given as “reversed”, the dopaminergic function (nigrostriatal neurons; aged monkeys) is given as “augmented” and the functional deficits (nigrostriatal neurons; monkeys treated with MPTP) is given as “reversed”. The nigrostriatal degeneration (nigrostriatal neurons; monkeys treated with MPTP) was “prevented”.
